The format of series [1] is physicochemical. The method, then: The stability and robustness of the technetium-di(pyridine) complexes was assessed using challenges with free cysteine and histidine. Specifically, the experiments were performed using [^99mTc(CO)3(dipyridinemethylamine)]^+1.
This approach enables the creation of libraries containing the {M(CO)31}^1+ core. We have begun to define the biological fate of the ^99mTc-dipyridine complexes, allowing us to compare a series of future tridentate analogs. The dipyridine labeling proceeded in high yield and was stable to excess histidine and cysteine challenges for more than 18 hours. […] Activity decreased in all tissues as a function of time, except in the GI tract, which increased with time.
[^99mTc(CO)3(H2O)3]^+ was heated with [{N,N-di(pyridyl-2-methyl)}N-butyl-phthalimide in 0.5 mL (1 mg/mL) of methanol at 100° C. for 60 minutes. […] The product eluted with methanol at 20.8 minutes. The HPLC analysis was performed using a Supelco C18 column, 25 cm×4.6 mm column (5 μm pore size), equipped with 2 cm guard using solvent A=0.05 M triethylammonium phosphate buffer pH 2.5 and solvent B=methanol. The method employed was a gradient 5-95% B, 1 mL/minute for 30 minutes. The gradient ramped from 5-95 from 3-20 minutes.

Series [2] is described as follows: Whole body biodistribution studies in rats. Format: in vivo, Rats (Sprague Dawley, male). The method, then: The animal care and use procedures were in accordance with the Guide for the Care and Use of Laboratory Animals and the Animal Welfare Act. The vertebrate animals in this research project were used to investigate the biodistribution and pharmacokinetics of the rotenone derivatives and determine uptake in the heart. Rats (Sprague Dawley, male, at 80-100 grams each) were used for the whole body biodistribution studies. The Tc-complexes, as well as Cardiolite™, were evaluated at three time points; 5, 30, and 120 minutes, with five animals per time point. In order to provide accurate statistics in the clearance rate measurements and to account for intra-species variation it was necessary to use this number of animals. The product was diluted to ˜10 μCi/100 μl using freshly prepared 10% ethanol/saline (0.9%) solution. The rats were injected via a lateral tail vein with a volume of 0.1 mL. The rats were sacrificed by decapitation, with immediate blood collection at the desired time points. Whole body biodistributions were performed on the animals immediately following decapitation, organ and tissue samples were taken and washed of excess blood, blotted dry and weighed. Radioactivity was assayed using automated Nal well counter. All tissue samples were counted together along with an aliquot of the injected dose so that % injected dose and % injected dose per gram of tissue could be calculated. […]

For [^99mTc(CO)3(dipyridinemethylamine)]^+1, the “stability and robustness in challenges with free cysteine and histidine” value in series [1] is recorded as “stable”. The “change in the components by HPLC analysis” value in series [1] (aqueous solution of the complex incubated with cysteine for 18 hours at 37° C. at pH 7.4) is given as “no significant change”.

Regarding [^99mTc(CO)3(DpK)], the figures for the “blood clearance, % ID/g” value in series [2] (at 5 minutes) and in series [2] (by 30 minutes) were 0.6 % ID/g and 0.07 % ID/g, respectively.

Source of the values: patent US7824661B2, “Technetium- and rhenium-bis(heteroaryl) complexes, and methods of use thereof” (priority 2002, dated 2010).
